Results: BigSolDB 2.1
Values joined by “and” are separate entries in the source; they are usually repeats but may differ in a detail not shown here. Equal values may be shown once.

C[C@@H](O[C@H]1OCCN(Cc2n[nH]c(=O)[nH]2)[C@H]1c1ccc(F)cc1)c1cc(C(F)(F)F)cc(C(F)(F)F)c1
Conditions | solubility (mole fraction)
in acetone, 284.75 K | 0.00512
in acetone, 289.85 K | 0.00582
in acetone, 291.45 K | 0.00601
in acetone, 295.95 K | 0.00663
in acetone, 299.85 K | 0.00719
in acetone, 301.45 K | 0.00741
in acetone, 303.75 K | 0.00778
in acetone, 305.65 K | 0.00808
in acetone, 307.55 K | 0.0084
in acetone, 313.85 K | 0.00955
in acetone, 317.75 K | 0.0104
in acetone, 324.65 K | 0.0118
in acetonitrile, 285.55 K | 0.000172
in acetonitrile, 289.55 K | 0.000196
in acetonitrile, 293.45 K | 0.000235
in acetonitrile, 295.95 K | 0.000262
in acetonitrile, 302.85 K | 0.000344
in acetonitrile, 304.35 K | 0.000368
in acetonitrile, 306.55 K | 0.000398
in acetonitrile, 309.55 K | 0.000444
in acetonitrile, 312.35 K | 0.000509
in acetonitrile, 318.85 K | 0.00063
in acetonitrile, 320.85 K | 0.00067
in acetonitrile, 327.95 K | 0.000853
in ethanol, 283.55 K | 0.00166
in ethanol, 290.85 K | 0.00209
in ethanol, 293.55 K | 0.00223
in ethanol, 295.95 K | 0.0024
in ethanol, 298.35 K | 0.00251
in ethanol, 301.55 K | 0.00279
in ethanol, 303.85 K | 0.00294
in ethanol, 306.25 K | 0.00316
in ethanol, 308.25 K | 0.00333
in ethanol, 315.25 K | 0.00396
in ethanol, 318.45 K | 0.00432
in ethanol, 324.85 K | 0.00505
in methanol, 284.45 K | 0.00314
in methanol, 288.75 K | 0.00343
in methanol, 292.15 K | 0.00374
in methanol, 296.35 K | 0.00405
in methanol, 298.45 K | 0.00422
in methanol, 300.75 K | 0.00445 and 0.00463
in methanol, 302.65 K | 0.00495
in methanol, 306.65 K | 0.00513
in methanol, 308.45 K | 0.00568
in methanol, 313.65 K | 0.00619
in methanol, 318.25 K | 0.00676
in n-butanol, 285.45 K | 0.00115
in n-butanol, 288.85 K | 0.00131
in n-butanol, 293.25 K | 0.00154
in n-butanol, 295.45 K | 0.00164
in n-butanol, 298.15 K | 0.00177
in n-butanol, 301.75 K | 0.002
in n-butanol, 303.75 K | 0.00219
in n-butanol, 306.35 K | 0.00235
in n-butanol, 308.85 K | 0.00258
in n-butanol, 313.45 K | 0.00292
in n-butanol, 317.45 K | 0.00335
in n-butanol, 322.25 K | 0.00392
in n-propanol, 283.75 K | 0.00127
in n-propanol, 290.75 K | 0.00162
in n-propanol, 294.75 K | 0.00187
in n-propanol, 296.95 K | 0.00198
in n-propanol, 298.55 K | 0.00207
in n-propanol, 300.15 K | 0.00215
in n-propanol, 303.05 K | 0.00241
in n-propanol, 306.25 K | 0.00262
in n-propanol, 308.75 K | 0.00285
in n-propanol, 314.35 K | 0.00331
in n-propanol, 318.35 K | 0.0037
in n-propanol, 325.35 K | 0.00463
